Active and inactive are the calls of the source.
Key:
Beta-galactosidase = Beta-galactosidase (Escherichia coli, UniProt Q8VNN2); experiment: Dose response counterscreen for EBI2 assay utilizing the enzyme, b-galactosidase.; format: functional
[1] = target: T1, Corticotropin-releasing factor receptor 2/Corticotropin-releasing factor-binding protein (Homo sapiens, UniProt P24387+Q13324); experiment: activators of CRF receptor 2 with binding protein – uHTS hits, confirmation (AID 602473); format: functional; conditions: read-out: EC50_Mean
T1 sequence (Q13324 whole entry): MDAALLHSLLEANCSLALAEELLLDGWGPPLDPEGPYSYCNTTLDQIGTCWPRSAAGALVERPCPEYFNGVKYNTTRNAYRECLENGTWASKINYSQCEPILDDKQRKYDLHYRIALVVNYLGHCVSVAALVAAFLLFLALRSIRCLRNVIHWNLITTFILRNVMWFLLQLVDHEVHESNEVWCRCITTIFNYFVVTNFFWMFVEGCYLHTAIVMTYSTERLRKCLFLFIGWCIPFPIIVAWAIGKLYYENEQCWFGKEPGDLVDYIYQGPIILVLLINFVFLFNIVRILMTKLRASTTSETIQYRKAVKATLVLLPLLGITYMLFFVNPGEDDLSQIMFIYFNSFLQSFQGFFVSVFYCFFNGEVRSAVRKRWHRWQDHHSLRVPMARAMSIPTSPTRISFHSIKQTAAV
T1 sequence (P24387 whole entry): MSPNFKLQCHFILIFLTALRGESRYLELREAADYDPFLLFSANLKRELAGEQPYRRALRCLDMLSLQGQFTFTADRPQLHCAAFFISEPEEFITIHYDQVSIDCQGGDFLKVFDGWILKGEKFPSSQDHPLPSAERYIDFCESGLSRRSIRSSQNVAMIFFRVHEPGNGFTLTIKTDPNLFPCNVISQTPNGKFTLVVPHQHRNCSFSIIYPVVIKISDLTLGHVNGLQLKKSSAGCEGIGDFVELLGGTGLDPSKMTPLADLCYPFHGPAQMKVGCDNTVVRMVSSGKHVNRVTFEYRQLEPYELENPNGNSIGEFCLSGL

[2] = target: T1, Corticotropin-releasing factor receptor 2/Corticotropin-releasing factor-binding protein; experiment: Dose Response confirmation of uHTS hits for small molecule antagonists of the CRF-binding protein and CRF-R2 receptor complex.; format: functional; conditions: read-out: IC50_Mean
[3] = target: T2, DNA repair protein RAD52 homolog (Homo sapiens, UniProt P43351); format: functional, biochemical
T2 sequence (P43351 whole entry): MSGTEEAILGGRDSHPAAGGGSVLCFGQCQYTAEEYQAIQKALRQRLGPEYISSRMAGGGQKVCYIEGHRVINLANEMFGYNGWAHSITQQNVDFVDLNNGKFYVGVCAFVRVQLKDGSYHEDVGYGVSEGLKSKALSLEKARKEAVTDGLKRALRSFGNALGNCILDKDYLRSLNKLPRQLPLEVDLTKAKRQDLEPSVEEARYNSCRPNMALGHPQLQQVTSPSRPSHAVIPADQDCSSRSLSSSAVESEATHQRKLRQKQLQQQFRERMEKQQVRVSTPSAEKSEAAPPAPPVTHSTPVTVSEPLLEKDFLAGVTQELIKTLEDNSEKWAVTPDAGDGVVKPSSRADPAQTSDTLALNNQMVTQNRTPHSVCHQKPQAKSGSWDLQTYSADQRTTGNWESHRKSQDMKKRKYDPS

[4] = target: DNA dC->dU-editing enzyme APOBEC-3A (Homo sapiens, UniProt P31941); experiment: Dose Response confirmation of small molecule APOBEC3A DNA Deaminase Inhibitors via a fluorescence-based single-stranded DNA deaminase assay. [Related pubchem assays (depositor defined):AID493011, AID493024]; format: functional
DNA dC->dU-editing enzyme APOBEC-3A, sequence (P31941 whole entry): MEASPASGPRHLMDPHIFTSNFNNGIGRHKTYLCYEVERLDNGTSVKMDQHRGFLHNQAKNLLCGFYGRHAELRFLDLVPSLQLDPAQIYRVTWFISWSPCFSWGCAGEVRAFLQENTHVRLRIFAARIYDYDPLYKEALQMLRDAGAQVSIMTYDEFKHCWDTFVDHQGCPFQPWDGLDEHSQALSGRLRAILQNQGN

INS1 = experiment: INS-1E survival protection against cytokine death – cell-based, luminescence, retest, dose response (AID 449756); format: functional; conditions: Rattus norvegicus;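 further: cell death triggered by IL-1 beta plus TNF-alpha plus IFN-gamma mixture; protective hits raise ATP signal compared with cytokine alone wells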
[5] = target: DNA dC->dU-editing enzyme APOBEC-3G (Homo sapiens, UniProt Q9HC16); format: functional;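 further: Dose-response counterscreen measuring inhibition of APOBEC3G DNA deaminase activity, run while confirming APOBEC3A inhibitors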
DNA dC->dU-editing enzyme APOBEC-3G, sequence (Q9HC16 whole entry): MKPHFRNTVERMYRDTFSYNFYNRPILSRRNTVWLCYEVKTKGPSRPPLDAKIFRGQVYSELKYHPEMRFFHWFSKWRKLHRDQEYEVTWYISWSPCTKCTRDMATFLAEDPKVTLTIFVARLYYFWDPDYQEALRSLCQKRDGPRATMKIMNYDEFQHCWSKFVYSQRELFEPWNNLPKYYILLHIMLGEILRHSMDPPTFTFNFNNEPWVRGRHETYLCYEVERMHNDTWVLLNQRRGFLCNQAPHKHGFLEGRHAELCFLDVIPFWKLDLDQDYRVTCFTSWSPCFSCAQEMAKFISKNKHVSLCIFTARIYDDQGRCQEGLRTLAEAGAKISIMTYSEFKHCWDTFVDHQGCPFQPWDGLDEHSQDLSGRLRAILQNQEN

[6] = Trypanosoma cruzi growth suppression in host cells – NIH3T3 host cells, beta-gal luminescence, confirmation (AID 2044); format: functional, cell-based;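 further: intracellular parasites grown in NIH/3T3 mouse fibroblasts as host cells; luminescent beta-galactosidase reporter signal from transgenic T. cruzi replicating inside host cells; inhibitors lower the luminescence signal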
[7] = NIH3T3 cell viability loss – ATP luminescence, mouse fibroblasts, counter-screen, dose response (AID 2010); format: functional, cell-based;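 further: cells exposed to compound for about 90 hours before reading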
Protein skinhead-1 = target: T3, Protein skinhead-1 (Caenorhabditis elegans, UniProt P34707); format: functional
T3 sequence (P34707 whole entry): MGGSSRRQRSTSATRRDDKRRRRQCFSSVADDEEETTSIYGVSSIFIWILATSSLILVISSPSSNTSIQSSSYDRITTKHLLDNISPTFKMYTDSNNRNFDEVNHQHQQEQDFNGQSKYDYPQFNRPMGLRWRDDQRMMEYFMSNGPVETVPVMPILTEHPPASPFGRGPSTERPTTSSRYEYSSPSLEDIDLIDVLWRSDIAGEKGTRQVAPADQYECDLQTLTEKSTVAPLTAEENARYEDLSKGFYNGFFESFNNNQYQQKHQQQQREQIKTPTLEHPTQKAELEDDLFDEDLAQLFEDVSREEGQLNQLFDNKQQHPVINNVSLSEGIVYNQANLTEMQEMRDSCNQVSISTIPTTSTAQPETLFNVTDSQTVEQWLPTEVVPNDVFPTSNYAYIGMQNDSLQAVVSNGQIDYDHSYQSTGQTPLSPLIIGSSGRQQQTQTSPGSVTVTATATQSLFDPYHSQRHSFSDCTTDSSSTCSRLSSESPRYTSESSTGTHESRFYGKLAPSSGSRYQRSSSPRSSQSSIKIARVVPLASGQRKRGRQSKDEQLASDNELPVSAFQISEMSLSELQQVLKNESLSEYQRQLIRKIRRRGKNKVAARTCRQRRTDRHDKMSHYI

[8] = HEK-293T viability loss after treatment – luminescence, T-cell screen hits, cytotoxicity control for TCR NF-kB inhibitor project, dose response (AID 489026); format: functional, cell-based;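 further: cells exposed to compound about 14 hours before the viability readout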
[9] = target: T4, Nucleotide-binding oligomerization domain-containing protein 1 (Homo sapiens, UniProt Q9Y239); experiment: blockers of NOD1 pathway activity – revised, SAR follow-up (AID 2333); format: functional
T4 sequence (Q9Y239 whole entry): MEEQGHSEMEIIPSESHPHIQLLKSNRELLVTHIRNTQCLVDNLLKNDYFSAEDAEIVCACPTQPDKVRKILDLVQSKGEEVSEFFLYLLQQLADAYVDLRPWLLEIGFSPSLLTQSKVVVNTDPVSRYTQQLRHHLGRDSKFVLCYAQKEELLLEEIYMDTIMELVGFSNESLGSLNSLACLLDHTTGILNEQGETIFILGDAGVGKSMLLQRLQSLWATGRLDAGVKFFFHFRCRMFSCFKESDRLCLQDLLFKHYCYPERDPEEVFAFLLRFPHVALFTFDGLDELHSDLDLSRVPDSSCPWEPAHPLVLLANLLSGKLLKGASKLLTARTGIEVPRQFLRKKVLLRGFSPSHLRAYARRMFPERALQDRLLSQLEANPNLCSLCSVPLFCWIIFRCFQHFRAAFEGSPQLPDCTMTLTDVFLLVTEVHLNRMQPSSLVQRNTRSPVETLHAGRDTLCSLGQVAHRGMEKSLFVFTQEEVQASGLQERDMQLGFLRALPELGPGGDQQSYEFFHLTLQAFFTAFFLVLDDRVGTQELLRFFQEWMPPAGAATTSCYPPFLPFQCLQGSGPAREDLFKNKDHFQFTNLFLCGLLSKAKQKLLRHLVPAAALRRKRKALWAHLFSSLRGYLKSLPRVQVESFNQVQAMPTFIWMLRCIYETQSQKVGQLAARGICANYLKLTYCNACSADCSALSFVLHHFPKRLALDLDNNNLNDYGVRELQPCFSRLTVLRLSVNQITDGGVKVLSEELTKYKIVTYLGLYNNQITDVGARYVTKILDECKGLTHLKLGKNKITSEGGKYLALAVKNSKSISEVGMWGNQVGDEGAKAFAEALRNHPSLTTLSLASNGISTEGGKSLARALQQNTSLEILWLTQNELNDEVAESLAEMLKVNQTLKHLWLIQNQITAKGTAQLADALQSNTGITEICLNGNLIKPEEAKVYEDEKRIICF

HEK293 = experiment: cells; conditions: Homo sapiens;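 further: cells exposed to compound for 14 hours overnight before viability readout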
Tumor necrosis factor = Tumor necrosis factor (Homo sapiens, UniProt P01375); experiment: analog potency on TNFa NF-kB signaling – cell-based, revised, SAR follow-up (AID 2337); format: functional
Tumor necrosis factor, sequence (P01375 whole entry): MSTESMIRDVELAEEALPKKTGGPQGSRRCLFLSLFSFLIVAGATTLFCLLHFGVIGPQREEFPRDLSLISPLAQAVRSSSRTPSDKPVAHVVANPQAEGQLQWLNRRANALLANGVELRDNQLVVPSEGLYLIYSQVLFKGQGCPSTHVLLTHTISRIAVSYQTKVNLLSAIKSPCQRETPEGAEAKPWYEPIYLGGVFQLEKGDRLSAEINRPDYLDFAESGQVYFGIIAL

[10] = A549 cell cytotoxicity, dose response, cytotoxicity control, plate reader, cherry-pick, antagonist series (AID 743412); format: functional, cell-based
[11] = toxicity toward HepG2 liver cells – cell-based, plate reader, cherry-pick, antagonist series, cytotoxicity control, dose response (AID 743416); format: functional

Beta-galactosidase, sequence (Q8VNN2 whole entry): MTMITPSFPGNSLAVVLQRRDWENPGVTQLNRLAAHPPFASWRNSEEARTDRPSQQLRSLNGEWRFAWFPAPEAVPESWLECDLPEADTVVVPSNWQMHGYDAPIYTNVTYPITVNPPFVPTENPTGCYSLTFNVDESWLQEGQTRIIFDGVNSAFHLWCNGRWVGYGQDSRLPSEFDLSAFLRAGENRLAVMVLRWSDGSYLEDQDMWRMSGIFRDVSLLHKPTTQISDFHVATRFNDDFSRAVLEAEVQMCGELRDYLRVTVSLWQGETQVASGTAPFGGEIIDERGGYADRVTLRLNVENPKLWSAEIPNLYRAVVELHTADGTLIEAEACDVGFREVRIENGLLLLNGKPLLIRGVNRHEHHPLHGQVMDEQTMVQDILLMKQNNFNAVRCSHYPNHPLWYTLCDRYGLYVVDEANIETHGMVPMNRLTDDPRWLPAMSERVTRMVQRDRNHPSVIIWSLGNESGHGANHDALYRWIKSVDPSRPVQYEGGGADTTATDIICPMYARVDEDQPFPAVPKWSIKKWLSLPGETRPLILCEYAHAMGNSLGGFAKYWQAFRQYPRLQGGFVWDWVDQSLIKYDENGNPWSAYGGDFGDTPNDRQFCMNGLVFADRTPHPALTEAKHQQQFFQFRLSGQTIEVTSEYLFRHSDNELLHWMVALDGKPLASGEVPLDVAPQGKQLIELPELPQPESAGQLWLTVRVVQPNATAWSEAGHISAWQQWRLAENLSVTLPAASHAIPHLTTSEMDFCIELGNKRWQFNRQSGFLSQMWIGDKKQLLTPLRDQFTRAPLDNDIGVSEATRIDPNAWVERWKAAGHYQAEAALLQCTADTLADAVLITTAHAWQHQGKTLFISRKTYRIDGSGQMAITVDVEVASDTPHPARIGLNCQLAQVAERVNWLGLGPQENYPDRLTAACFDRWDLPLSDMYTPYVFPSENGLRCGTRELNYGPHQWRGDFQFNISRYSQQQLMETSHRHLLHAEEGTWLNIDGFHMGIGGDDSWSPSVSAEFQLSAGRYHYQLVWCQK

Structure (SMILES)	IC50 (Beta-galactosidase)	IC50 [4]	IC50 [5]	also measured
O=C(COc1ccc2ccccc2c1)N1CCN(C(=O)c2ccc([N+](=O)[O-])cc2)CC1	> 80 µM (inactive)			EC50 [1]: > 53 µM (inactive); IC50 [2]: > 47.1 µM (inactive)
CCOC(=O)N(C)c1c(CC)nc2c(OCc3ccc(Cl)cc3Cl)cccn12	121 µM (inactive)			
CC(=O)Nc1ccc(CNc2nc(NCCN(C)C)nc3cc(-c4ccccc4)sc23)cc1				AC50 [3]: 1.37 µM (active)
CC1(C)CC(N2CCN(c3ccccc3)CC2)=CC(=[N+]2CCCC2)C1		2.15 µM (active)	2.24 µM (active)	AC50 (INS1): 1.81 µM (active); EC50 [6]: 263 nM (active); EC50 [7]: > 60 µM (not active)
CCOC(=O)N1CCN(C(=O)c2cc3c(O)nc4ccccc4c3s2)CC1	> 80 µM (inactive)			
CC(=O)Nc1ccc(Nc2cc(C)nc(Nc3ccc(NC(C)=O)cc3)n2)cc1		11 µM (active)	16.4 µM (active)	
CCN1C(NCCOC)=N[C@@H](c2ccccc2)[C@H](C(=O)OC)[C@H]1C		4.47 µM (active)	4.28 µM (active)	
COc1ccc2[nH]c(=O)c(CN(C(=O)c3ccco3)C(C)C)cc2c1		6.26 µM (active)	6.32 µM (active)	
Cc1ccc(/C=C2/SC(Nc3ccc(F)cc3)=NC2=O)s1		3.22 µM (active)	7.58 µM (active)	IC50 (Protein skinhead-1): > 100 µM (inactive)
CC(=O)c1ccc(N2CCN(S(=O)(=O)c3ccc4c(c3)CC(C)N4C(=O)C3CC3)CC2)cc1 (stereo unspecified)				IC50 [8]: > 80 µM (inactive); IC50 [9]: 8.77 µM (active); IC50 (HEK293): > 20 µM (inactive); IC50 (Tumor necrosis factor): 3.18 µM (active)
Cn1c(C(=O)NCCCN2CCCCCC2)cc2c(=O)n(C)c3ccccc3c21				AC50 [3]: 12.4 µM (active)
Cc1ccc(NC(=O)c2ncn(CC(=O)N3CCN(c4ccccn4)CC3)n2)cc1C				AC50 [10]: > 52 µM (inactive); AC50 [11]: > 52 µM (inactive)
CCc1ccc(CN(C)C(=O)c2cc(=O)c3ccccc3o2)cc1	> 80 µM (inactive)			
Cc1sc2nc(C3CC3)nc(N3CCN(C(=O)c4ccc(Cl)cc4)CC3)c2c1C	> 80 µM (inactive)			
CN(Cc1ccccc1)C(=O)c1ncn(C)c1C(=O)N(C)Cc1ccccc1		3.15 µM (active)	> 100 µM (inactive)	
